Measurements: PubChem BioAssay AID2695 (Broad Institute, 2010)
≈ marks a conversion by molar mass, not a printed value. Inconclusive results are not listed. Calls of active or inactive are those of the source.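 The calls were made as follows: active = a dose response, with MIC, the lowest growth-blocking dose, below the top tested dose; inconclusive = replicates split around the top dose, or self-fluorescent without titration; inactive = MIC above the top tested dose.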

System: C. albicans SC5314 growth, alamar blue fluorescence
Assay: Candida albicans viability loss, MIC – SC5314, Alamar Blue fluorescence, dose response (AID 2695)
Details: 6.5 h

MIC | SMILES
> 33 µM (inactive) | O=C(Oc1c(-c2ccccc2)c(=O)n2c3c(cccc13)CC2)c1cccc([N+](=O)[O-])c1
> 33 µM (inactive) | Nc1ncnc2c1ncn2C1OC(CO)CC1O (stereo unspecified)
16.6 µM (≈ 5.35 µg/mL) | Cc1ccc(C(=O)c2no[n+]([O-])c2C(=O)c2ccc(C)cc2)cc1
> 33 µM (inactive) | Cc1ccc(Nc2c(-c3ccc(C)o3)nc3ncccn23)cc1
16.6 µM (≈ 4.54 µg/mL) | CC(=O)c1ccc(Sc2ccccc2)c([N+](=O)[O-])c1
> 33 µM (inactive) | COc1cc(/C=C2\SC(=S)N(NC(=O)c3ccncc3)C2=O)ccc1O
> 33 µM (inactive) | COc1cc(/C=C2\SC(=S)N(NC(=O)c3cccnc3)C2=O)ccc1O
> 33 µM (inactive) | Cc1ccc(-c2nn3c(C)nnc3s2)cc1NC(=O)CSc1ccc(Cl)cc1
> 33 µM (inactive) | COc1cc(/C=C2/CC/C(=C/c3ccc(O)c(OC)c3)C2=O)ccc1O
17.5 µM (≈ 6.78 µg/mL) | COc1cc(/C=C2/SC(=S)N(Cc3ccccc3)C2=O)cc(OC)c1O
> 33 µM (inactive) | CCOc1cc(/C=C2\N=C(SC(C)C(N)=O)N(c3ccc(OC(F)F)cc3)C2=O)ccc1O (stereo unspecified)
2.1 µM (≈ 0.618 µg/mL) | Cc1ccc2nc(/C(C#N)=C/c3ccc([N+](=O)[O-])o3)[nH]c2c1
> 33 µM (inactive) | N#CC1(C#N)C2=C(CCCC2)NC(c2ccccc2)C1(C#N)C#N (stereo unspecified)
4.1 µM (≈ 1.15 µg/mL) | N#C/C(=C/c1ccc([N+](=O)[O-])o1)c1nc2ccccc2[nH]1
> 33 µM (inactive) | O=C(COC(=O)Cc1ccc(S(=O)(=O)N2CCOCC2)s1)NCc1ccc(Cl)cc1
> 33 µM (inactive) | O=C(O)CN1C(=O)/C(=C\c2ccc(N3CCCCC3)o2)SC1=S
